viability, IC50 and inhibition data for 41 molecules are collected here from ChEMBL document CHEMBL4680145, “Expansion of chemical space based on a pyrrolo[1,2-a]pyrazine core: Synthesis and its anticancer activity in prostate cancer and breast cancer cells” (Eur J Med Chem, 2020).

The test system of assay [1] is PC-3. Description: Cytotoxicity against human PC-3 cells assessed as cell viability at 30 uM incubated for 48 hrs by MTS assay relative to control. Format: functional. To be noted: read-out: Activity. A general note: Tetrazolium assays rely on reduction of a dye to a coloured formazan, in cell work by metabolically active cells.
The subject of assay [2] is MCF7. In words: Cytotoxicity against human MCF7 cells assessed as cell viability at 30 uM incubated for 48 hrs by MTS assay relative to control. Format: functional. The following applies: read-out: Activity.
Assay [3] has as its system PC-3. Description: Cytotoxicity against human PC-3 cells assessed as reduction in cell viability incubated for 48 hrs by MTS assay. Format: functional, cell-based. The following applies: PC-3, 48 h.
In assay [4] the test system is MCF7. In words: Antimigratory activity against human MCF7 cells assessed as reduction in cell migration measured every 2 hrs for 24 hrs by wound healing assay. Format: functional, cell-based. To be noted: dose 1-10 µM.
The test system of assay [5] is PC-3. In words: Antimigratory activity against human PC-3 cells assessed as reduction in cell migration measured every 2 hrs for 24 hrs by wound healing assay. Format: functional, cell-based. The following applies: dose 1-10 µM.
The test system of assay [6] is MCF7. In words: Cytotoxicity against human MCF7 cells assessed as reduction cell viability incubated for 48 hrs by MTS assay. It counts as functional, cell-based. The following applies: MCF7, 48 h.

In general, IC50 refers to the concentration at which inhibition is half-maximal. Turning to `O=C(c1ccc(Br)cc1)c1c(-c2ccccc2)ncc2cccn12`, the viability at 30 µM with PC-3 [1] turned out to be 5.8%; with MCF7 [2] it was 37%. Further, the IC50 with PC-3 [3] is 7.17 µM.
As for `COc1ccc([C@H]2N=Cc3cccn3[C@@H]2C(=O)c2cccc(OC)c2)cc1` (relative stereo), the results for the viability at 30 µM in the assay on PC-3 [1] and in the assay with MCF7 [2] were 83.8% and 77.9%, respectively.
`O=C(c1ccccc1)[C@@H]1[C@@H](c2ccc(Br)cc2)N=Cc2cccn21` (relative stereo): the viability at 30 µM was 83.3% in the assay with PC-3 [1] and 99.9% with MCF7 [2].
For the molecule `COc1ccc([C@H]2N=Cc3cccn3[C@@H]2C(=O)c2ccc(Br)cc2)cc1` (relative stereo), the viability at 30 µM in the assay with PC-3 [1] is 28.6%; in the assay with MCF7 [2], 39.8%. Further, the IC50 with PC-3 [3] is 20.6 µM.
As to `COc1cccc(C(=O)[C@@H]2[C@@H](c3ccncc3)N=Cc3cccn32)c1` (relative stereo), the viability at 30 µM with PC-3 [1] was determined as 91.4%; with MCF7 [2], 95.5%.
As for `O=C(c1ccc(Br)cc1)[C@@H]1[C@@H](c2ccccc2)N=Cc2cccn21` (relative stereo), the viability at 30 µM in the assay on PC-3 [1] worked out at 68.5%; with MCF7 [2], 66.9%.
Taken in the same sequence, the figures for `O=C(c1ccccc1)[C@@H]1[C@@H](c2ccc(Cl)cc2)N=Cc2cccn21` (relative stereo) were 84.8% and 102%.
Regarding `COc1ccc([C@@H]2[C@@H](C(=O)c3ccc(Br)cc3)n3cccc3C=[N+]2CC(=O)c2ccccc2)cc1` (relative stereo), the viability at 30 µM stood at 6.3% in the assay with PC-3 [1] and 6.4% in the assay on MCF7 [2]. Moreover, the inhibition entry in the assay on MCF7 [4] and in the assay on PC-3 [5] was “Dose-dependent effect” throughout. The figures for the IC50 in the assay on MCF7 [6] and with PC-3 [3] were 2450 nM and 2.19 µM, respectively.
With `O=C(c1ccc(F)cc1)[C@@H]1[C@@H](c2ccncc2)N=Cc2cccn21` (relative stereo), the viability at 30 µM in the assay on PC-3 [1] was determined as 100%; in the assay with MCF7 [2] it was 78.5%.
On to `O=C(c1ccc(Br)cc1)[C@@H]1[C@@H](c2ccccn2)N=Cc2cccn21` (relative stereo), for which the viability at 30 µM worked out at 73.2% in the assay with PC-3 [1] and 67.5% with MCF7 [2].
As to `COc1ccc(C(=O)[C@@H]2[C@@H](c3ccco3)N=Cc3cccn32)cc1` (relative stereo), the viability at 30 µM in the assay on PC-3 [1] worked out at 55.7%; in the assay on MCF7 [2] it was 99.9%.
Consider `COc1ccc(C(=O)C[N+]2=Cc3cccn3[C@H](C(=O)c3ccc(Br)cc3)[C@H]2c2ccccc2)cc1` (relative stereo), for which the viability at 30 µM in the assay with PC-3 [1] was determined as 56%; in the assay with MCF7 [2], 54.5%.
Turning to `O=C(c1ccc(Br)cc1)[C@@H]1[C@@H](c2ccccc2)[N+](Cc2ccccc2)=Cc2cccn21` (relative stereo), the viability at 30 µM in the assay with PC-3 [1] came out at 97.9%; with MCF7 [2] it was 98.1%.
As to `O=C(C[N+]1=Cc2cccn2[C@H](C(=O)c2ccc(Br)cc2)[C@H]1c1ccccc1)c1ccc(F)cc1` (relative stereo), the figures for the viability at 30 µM with PC-3 [1] and with MCF7 [2] were 10.7% and 33.8%, respectively.
For the molecule `O=C(c1ccc(Cl)cc1)[C@@H]1[C@@H](c2ccc[nH]2)N=Cc2cccn21` (relative stereo), the viability at 30 µM with PC-3 [1] and with MCF7 [2] was 102% each time.
In the case of `Cc1ccc([C@H]2N=Cc3cccn3[C@@H]2C(=O)c2ccc(F)cc2)cc1` (relative stereo), the viability at 30 µM in the assay with PC-3 [1] turned out to be 99.8%; in the assay on MCF7 [2], 111%.
Consider `O=C(c1ccc(F)cc1)[C@@H]1[C@@H](c2ccc(Br)cc2)N=Cc2cccn21` (relative stereo), for which the viability at 30 µM is 18.5% with PC-3 [1] and 31.1% in the assay with MCF7 [2]. The IC50 in the assay with PC-3 [3] worked out at 16.4 µM.
Turning to `O=C(c1ccccc1)[C@@H]1[C@@H](c2ccc([N+](=O)[O-])cc2)N=Cc2cccn21` (relative stereo), the viability at 30 µM in the assay with PC-3 [1] was 86.9%; in the assay with MCF7 [2], 85.1%.
On the same counts, the results for `COc1cc(OC)cc([C@H]2N=Cc3cccn3[C@@H]2C(=O)c2ccccc2)c1` (relative stereo) are 106% and 102%.
In the case of `C[N+]1=Cc2cccn2[C@H](C(=O)c2ccc(Br)cc2)[C@H]1c1ccccc1` (relative stereo), the viability at 30 µM came out at 97.9% with PC-3 [1] and 98.1% in the assay with MCF7 [2].
Regarding `O=C(c1ccc(Cl)cc1)[C@@H]1[C@@H](c2ccccc2)N=Cc2cccn21` (relative stereo), the figures for the viability at 30 µM in the assay on PC-3 [1] and with MCF7 [2] were 99.9% and 99.3%, respectively.
With `COc1ccc(C(=O)[C@@H]2[C@@H](c3ccc(C)cc3)N=Cc3cccn32)cc1` (relative stereo), the viability at 30 µM turned out to be 81.3% in the assay with PC-3 [1] and 77.4% in the assay with MCF7 [2].
Regarding `O=C(c1ccc(F)cc1)[C@@H]1[C@@H](c2ccco2)N=Cc2cccn21` (relative stereo), the figures for the viability at 30 µM in the assay with PC-3 [1] and in the assay on MCF7 [2] were 99.4% and 70%, respectively.
`O=C(c1ccccc1)[C@@H]1[C@@H](c2ccco2)N=Cc2cccn21` (relative stereo): the viability at 30 µM turned out to be 59% in the assay on PC-3 [1] and 95.3% in the assay on MCF7 [2].
As for `COc1ccccc1[C@H]1N=Cc2cccn2[C@@H]1C(=O)c1ccccc1` (relative stereo), the viability at 30 µM was found to be 95.5% with PC-3 [1] and 107% in the assay with MCF7 [2].
On the same counts, the results for `O=C(c1ccc(Br)cc1)[C@@H]1[C@@H](c2ccco2)N=Cc2cccn21` (relative stereo) are 99.2% and 96.5%.
For the molecule `COc1ccccc1[C@H]1N=Cc2cccn2[C@@H]1C(=O)c1ccc(Cl)cc1` (relative stereo), the viability at 30 µM with PC-3 [1] turned out to be 99.5%; in the assay on MCF7 [2], 96.5%.
Regarding `Cc1ccc([C@H]2N=Cc3cccn3[C@@H]2C(=O)c2ccc(Cl)cc2)cc1` (relative stereo), the viability at 30 µM came out at 104% in the assay with PC-3 [1] and 100% in the assay with MCF7 [2].
Taken in the same sequence, the figures for `COc1ccc([C@H]2N=Cc3cccn3[C@@H]2C(=O)c2ccc(F)cc2)cc1OC` (relative stereo) were 96.7% and 72.8%.
Regarding `O=C(c1ccccc1)[C@@H]1[C@@H](c2cc3ccccc3[nH]2)N=Cc2cccn21` (relative stereo), the results for the viability at 30 µM in the assay with PC-3 [1] and in the assay with MCF7 [2] were 92.1% and 106%, respectively.
On to `COc1ccc(C(=O)[C@@H]2[C@@H](c3ccc(OC)c(OC)c3)N=Cc3cccn32)cc1` (relative stereo), for which the results for the viability at 30 µM in the assay with PC-3 [1] and in the assay with MCF7 [2] were 102% and 98%, respectively.
For the molecule `COc1ccc(C(=O)[C@@H]2[C@@H](c3ccc(Br)cc3)N=Cc3cccn32)cc1` (relative stereo), the viability at 30 µM with PC-3 [1] was found to be 96.4%; in the assay with MCF7 [2] it was 100%.
As for `O=C(c1ccc(F)cc1)[C@@H]1[C@@H](c2ccccc2)N=Cc2cccn21` (relative stereo), the viability at 30 µM in the assay with PC-3 [1] turned out to be 76%; in the assay with MCF7 [2], 70.3%.
With `Cc1ccc([C@H]2N=Cc3cccn3[C@@H]2C(=O)c2ccccc2)cc1` (relative stereo), the viability at 30 µM in the assay on PC-3 [1] and with MCF7 [2] was 108% each time.
Regarding `O=C(C[N+]1=Cc2cccn2[C@H](C(=O)c2ccc(Br)cc2)[C@H]1c1ccccc1)c1ccc(Cl)cc1` (relative stereo), the viability at 30 µM with PC-3 [1] came out at 80.8%; in the assay with MCF7 [2], 82.5%.
For `COc1cccc(C(=O)[C@@H]2[C@@H](c3ccccc3)N=Cc3cccn32)c1` (relative stereo), the viability at 30 µM in the assay on PC-3 [1] and with MCF7 [2] was 104% each time.
On to `COc1ccccc1[C@H]1N=Cc2cccn2[C@@H]1C(=O)c1ccc(F)cc1` (relative stereo), for which the results for the viability at 30 µM in the assay with PC-3 [1] and in the assay with MCF7 [2] were 86.4% and 69.3%, respectively.
As to `O=C(c1ccccc1)[C@@H]1[C@@H](c2ccccc2)N=Cc2cccn21` (relative stereo), the viability at 30 µM with PC-3 [1] was found to be 106%; in the assay on MCF7 [2] it was 104%.
On to `CCOC(=O)C[N+]1=Cc2cccn2[C@H](C(=O)c2ccc(Br)cc2)[C@H]1c1ccccc1` (relative stereo), for which the viability at 30 µM in the assay on PC-3 [1] amounted to 10.7%; in the assay with MCF7 [2], 24%. Moreover, in the assay on PC-3 [3], the half-inhibitory concentration (IC50) came out at 8.74 µM.
`Cc1ccc([C@H]2N=Cc3cccn3[C@@H]2C(=O)c2ccc(Br)cc2)cc1` (relative stereo): the viability at 30 µM with PC-3 [1] was 99%; in the assay with MCF7 [2] it was 99.9%.
Taken in the same sequence, the figures for `COc1cccc(C(=O)[C@@H]2[C@@H](c3ccc(Cl)cc3)N=Cc3cccn32)c1` (relative stereo) were 99.6% and 118%.
